These compounds were tested on recombinant rabies virus 1088 strain expressing Gaussia Luciferase (GLuc) (1088/GLuc). Conditions: read-out: Anti-rabies activity.
Assay type: cell-based
In the case of `CC(C)CCNC(=O)[C@@]12C[C@@H]3CN(CC4CCCCC4)[C@@H]([C@@H]3CN1)[C@H]2CC(C)C` (relative stereo) [IF-659], the IC50 is reported as 10 to 30 µM.
With `CC(C)CCNC(=O)[C@@]12C[C@@H]3CN(CCO)[C@@H]([C@@H]3CN1)[C@H]2Cc1cccc2ccccc12` (relative stereo) [IF-660] the IC50 was 10 to 30 µM.
For `CC(C)CCNC(=O)[C@@]12C[C@@H]3CN(Cc4ccccc4)[C@@H]([C@@H]3CN1)[C@H]2Cc1ccccc1` (relative stereo) [IF-665], the IC50 was under 5 µM.
`CC(C)CNC(=O)[C@@]12C[C@@H]3CN(Cc4ccccc4)[C@@H]([C@@H]3CN1)[C@H]2CCc1ccccc1` (relative stereo) [IF-670] was tested, and the IC50 was under 5 µM.
In the case of `CC(C)CCNC(=O)[C@@]12C[C@@H]3CN(CC(C)C)[C@@H]([C@@H]3CN1)[C@H]2CCc1ccccc1` (relative stereo) [IF-673], the IC50 is reported as under 5 µM.
In the case of `CC(C)CCNC(=O)[C@@]12C[C@@H]3CN(CC(C)C)[C@@H]([C@@H]3CN1)[C@H]2Cc1cccc2ccccc12` (relative stereo) [IF-674], the IC50 is reported as 10 to 30 µM.
In the case of `CC(C)CC[C@@H]1[C@@H]2[C@@H]3CN[C@@]1(C(=O)NCc1ccccc1)C[C@@H]3CN2CC(C)C` (relative stereo) [IF-675], the IC50 is reported as under 5 µM.
`CC(C)CNC(=O)[C@@]12C[C@@H]3CN(CC(C)C)[C@@H]([C@@H]3CN1)[C@H]2CCc1ccccc1` (relative stereo) [IF-679] showed an IC50 of under 5 µM.
In the case of `CC(C)CNC(=O)[C@@]12C[C@@H]3CN(CC(C)C)[C@@H]([C@@H]3CN1)[C@H]2Cc1cccc2ccccc12` (relative stereo) [IF-680], the IC50 is reported as 10 to 30 µM.
Compound `CC(C)CCNC(=O)[C@@]12C[C@@H]3CN(Cc4ccc(O)cc4)[C@@H]([C@@H]3CN1)[C@H]2Cc1cccc2ccccc12` (relative stereo) [IF-684] has an IC50 of 10 to 30 µM.
With `CC(C)CCNC(=O)[C@@]12C[C@@H]3CN(Cc4ccccc4)[C@@H]([C@@H]3CN1)[C@H]2CC(C)C` (relative stereo) [IF-691] the IC50 was 10 to 30 µM.
`CCCCCCNC(=O)[C@@]12C[C@@H]3CN(Cc4ccccc4)[C@@H]([C@@H]3CN1)[C@H]2Cc1ccc(O)cc1` (relative stereo) [IF-692] was tested, and the IC50 was under 5 µM.
`CC(C)C[C@@H]1[C@@H]2[C@@H]3CN[C@@]1(C(=O)NCCC(N)=O)C[C@@H]3CN2CCc1ccccc1` (relative stereo) [IF-699] was tested, and the IC50 was 10 to 30 µM.
`CC(C)CCN1C[C@H]2C[C@]3(C(=O)NCc4cccc5ccccc45)NC[C@H]2[C@H]1[C@H]3CC(C)C` (relative stereo) [IF-705] showed an IC50 of under 5 µM.
With `CC(C)CCN1C[C@H]2C[C@]3(C(=O)NCc4cccc5ccccc45)NC[C@H]2[C@H]1[C@H]3Cc1ccc(O)cc1` (relative stereo) [IF-706] the IC50 was under 5 µM.
With `CC(C)CCNC(=O)[C@@]12C[C@@H]3CN(CCc4ccccc4)[C@@H]([C@@H]3CN1)[C@H]2Cc1ccc(O)cc1` (relative stereo) [IF-707] the IC50 was under 5 µM.
In the case of `O=C(NCCc1ccccc1)[C@@]12C[C@@H]3CN(Cc4cccc5ccccc45)[C@@H]([C@@H]3CN1)[C@H]2Cc1ccc(O)cc1` (relative stereo) [IF-708], the IC50 is reported as under 5 µM.
With `CC(C)CCNC(=O)[C@@]12C[C@@H]3CN(CC4CCCCC4)[C@@H]([C@@H]3CN1)[C@H]2Cc1ccc(O)cc1` (relative stereo) [IF-709] the IC50 was 10 to 30 µM.
For `O=C(NCCc1ccccc1)[C@@]12C[C@@H]3CN(CC4CCCCC4)[C@@H]([C@@H]3CN1)[C@H]2Cc1ccccc1` (relative stereo) [IF-710], the IC50 was under 5 µM.
Compound `CC(C)C[C@@H]1[C@@H]2[C@@H]3CN[C@@]1(C(=O)NCCc1ccccc1)C[C@@H]3CN2CC1CCCCC1` (relative stereo) [IF-711] has an IC50 of 10 to 30 µM.
Work on `CC(C)C[C@@H]1[C@@H]2[C@@H]3CN[C@@]1(C(=O)NCCc1ccccc1)C[C@@H]3CN2Cc1ccc(F)cc1` (relative stereo) [IF-714] yielded an IC50 of under 5 µM.
`O=C(NCCc1ccccc1)[C@@]12C[C@@H]3CN(Cc4ccc(F)cc4)[C@@H]([C@@H]3CN1)[C@H]2Cc1ccc(O)cc1` (relative stereo) [IF-715] was tested, and the IC50 was under 5 µM.
In the case of `CC(C)CC[C@@H]1[C@@H]2[C@@H]3CN[C@@]1(C(=O)NCCc1ccccc1)C[C@@H]3CN2CC1CCCCC1` (relative stereo) [IF-717], the IC50 is reported as under 5 µM.
Compound `O=C(NCCc1ccccc1)[C@@]12C[C@@H]3CN(CC4CCCCC4)[C@@H]([C@@H]3CN1)[C@H]2Cc1cccc2ccccc12` (relative stereo) [IF-718] has an IC50 of under 5 µM.
`CC(C)C[C@@H]1[C@@H]2[C@@H]3CN[C@@]1(C(=O)NCCc1ccccc1)C[C@@H]3CN2Cc1ccccc1` (relative stereo) [IF-721] showed an IC50 of under 5 µM.
`O=C(NCCc1ccccc1)[C@@]12C[C@@H]3CN(Cc4ccccc4)[C@@H]([C@@H]3CN1)[C@H]2Cc1ccc(O)cc1` (relative stereo) [IF-722] gave an IC50 of under 5 µM.
With `CC(C)CC[C@@H]1[C@@H]2[C@@H]3CN[C@@]1(C(=O)NCCc1ccccc1)C[C@@H]3CN2Cc1ccccc1` (relative stereo) [IF-723] the IC50 was 10 to 30 µM.
Compound `CC(C)C[C@@H]1[C@@H]2[C@@H]3CN[C@@]1(C(=O)NCCc1ccccc1)C[C@@H]3CN2CC(C)C` (relative stereo) [IF-725] has an IC50 of 10 to 30 µM.
For `CC(C)C[C@@H]1[C@@H]2[C@@H]3CN[C@@]1(C(=O)NCc1cccc4ccccc14)C[C@@H]3CN2CC(C)C` (relative stereo) [IF-726], the IC50 was 10 to 30 µM.
Compound `CC(C)CC[C@@H]1[C@@H]2[C@@H]3CN[C@@]1(C(=O)NCCc1ccccc1)C[C@@H]3CN2CC(C)C` (relative stereo) [IF-727] has an IC50 of under 5 µM.
Compound `CC(C)CCN1C[C@H]2C[C@]3(C(=O)NCc4ccccc4)NC[C@H]2[C@H]1[C@H]3CC(C)C` (relative stereo) [IF-733] has an IC50 of under 5 µM.
`CC(C)CCN1C[C@H]2C[C@]3(C(=O)NCC(C)C)NC[C@H]2[C@H]1[C@H]3Cc1cccc2ccccc12` (relative stereo) [IF-734] gave an IC50 of under 5 µM.
In the case of `CC(C)CCN1C[C@H]2C[C@]3(C(=O)NCC(C)C)NC[C@H]2[C@H]1[C@H]3Cc1ccccc1` (relative stereo) [IF-735], the IC50 is reported as 10 to 30 µM.
Work on `CC(C)CNC(=O)[C@@]12C[C@@H]3CN(CCc4ccccc4)[C@@H]([C@@H]3CN1)[C@H]2CC(C)C` (relative stereo) [IF-738] yielded an IC50 of 10 to 30 µM.
With `CC(C)CNC(=O)[C@@]12C[C@@H]3CN(Cc4cccc5ccccc45)[C@@H]([C@@H]3CN1)[C@H]2CC(C)C` (relative stereo) [IF-739] the IC50 was under 5 µM.
`CC(C)CC[C@@H]1[C@@H]2[C@@H]3CN[C@@]1(C(=O)NCc1ccccc1)C[C@@H]3CN2CC1CCCCC1` (relative stereo) [IF-740] showed an IC50 of 10 to 30 µM.
Work on `CC(C)CNC(=O)[C@@]12C[C@@H]3CN(CC4CCCCC4)[C@@H]([C@@H]3CN1)[C@H]2CC(C)C` (relative stereo) [IF-742] yielded an IC50 of 10 to 30 µM.
Compound `CC(C)CC[C@@H]1[C@@H]2[C@@H]3CN[C@@]1(C(=O)NCc1ccccc1)C[C@@H]3CN2Cc1ccc(F)cc1` (relative stereo) [IF-743] has an IC50 of 10 to 30 µM.
Compound `CC(C)CCNC(=O)[C@@]12C[C@@H]3CN(CCc4ccccc4)[C@@H]([C@@H]3CN1)[C@H]2Cc1ccccc1` (relative stereo) [IF-744] has an IC50 of under 5 µM.
Work on `CC(C)CN1C[C@H]2C[C@]3(C(=O)NCc4ccccc4)NC[C@H]2[C@H]1[C@H]3Cc1cccc2ccccc12` (relative stereo) [IF-753] yielded an IC50 of 10 to 30 µM.
For `O=C(NCc1cccc2ccccc12)[C@@]12C[C@@H]3CN(CCO)[C@@H]([C@@H]3CN1)[C@H]2Cc1ccccc1` (relative stereo) [IF-758], the IC50 was under 5 µM.
For `CC(C)CN1C[C@H]2C[C@]3(C(=O)NCc4cccc5ccccc45)NC[C@H]2[C@H]1[C@H]3Cc1cccc2ccccc12` (relative stereo) [IF-778], the IC50 was under 5 µM.
`O=C(NCc1cccc2ccccc12)[C@@]12C[C@@H]3CN(Cc4ccc(O)cc4)[C@@H]([C@@H]3CN1)[C@H]2Cc1cccc2ccccc12` (relative stereo) [IF-779] was tested, and the IC50 was 10 to 30 µM.
`CC(C)NC(=O)[C@@]12C[C@@H]3CN(Cc4cccc5ccccc45)[C@@H]([C@@H]3CN1)[C@H]2CCc1ccccc1` (relative stereo) [IF-789] gave an IC50 of 10 to 30 µM.
In the case of `CC(C)C[C@@H]1[C@@H]2[C@@H]3CN[C@@]1(C(=O)NCc1cccc4ccccc14)C[C@@H]3CN2Cc1ccccc1` (relative stereo) [IF-837], the IC50 is reported as 5 to 10 µM.
Compound `CC(C)C[C@@H]1[C@@H]2[C@@H]3CN[C@@]1(C(=O)NCc1ccc(C(F)(F)F)cc1)C[C@@H]3CN2Cc1ccccc1` (relative stereo) [IF-838] has an IC50 of 10 to 30 µM.
Compound `CC(C)CNC(=O)[C@]12N=C[C@@H]3C[C@H]1CN(Cc1ccccc1)[C@H]2[C@@H]3CC(C)C` (relative stereo) [IIB-4, (3S*,3aS*,6R*,7R*,7aS*)-1-benzyl-N,7-diisobutyl-1,2,3,6,7,7a-hexahydro-3aH-3,6-methanopyrrolo[3,2-b]pyridine-3a-carboxamide] has an IC50 of 5 to 10 µM.
Work on `Cc1ccc(CNC(=O)[C@@]23C[C@@H]4CN(CC(C)C)[C@@H]([C@@H]4C=N2)[C@H]3Cc2ccccc2)cc1` (relative stereo) [IIF-16] yielded an IC50 of 10 to 30 µM.
`CC(C)CCN1C[C@H]2C[C@]3(C(=O)NCc4cccc(Cl)c4)N=C[C@H]2[C@H]1[C@H]3Cc1ccccc1` (relative stereo) [IIF-325] was tested, and the IC50 was under 5 µM.
With `CC(C)CCN1C[C@H]2C[C@]3(C(=O)NCc4ccc(F)cc4)N=C[C@H]2[C@H]1[C@H]3Cc1ccccc1` (relative stereo) [IIF-327] the IC50 was under 5 µM.
For `Cc1ccc(CNC(=O)[C@@]23C[C@@H]4CN(CCC(C)C)[C@@H]([C@@H]4C=N2)[C@H]3Cc2ccccc2)cc1` (relative stereo) [IIF-328], the IC50 was under 5 µM.
In the case of `COc1ccc(CNC(=O)[C@@]23C[C@@H]4CN(CCC(C)C)[C@@H]([C@@H]4C=N2)[C@H]3Cc2ccccc2)cc1` (relative stereo) [IIF-329], the IC50 is reported as under 5 µM.
Work on `COc1ccc(CNC(=O)[C@@]23C[C@@H]4CN(CC(C)C)[C@@H]([C@@H]4C=N2)[C@H]3CCc2ccccc2)cc1` (relative stereo) [IIF-332] yielded an IC50 of under 5 µM.
`CC(C)CC1C2CNC3(C(=O)NCCc4ccccc4)C(C2)CN(CC(N)=O)C13` (stereo not drawn) [IB-86] was tested, and the IC50 was 10 to 30 µM.
`NC(=O)CN1CC2CC3CNC2(C(=O)NCCc2ccccc2)C1C3Cc1ccccc1` (stereo not drawn) [IB-87] gave an IC50 of under 5 µM.
With `CCCCCCNC(=O)C12NCC3CC1CN(CC(N)=O)C2C3CCC(C)C` (stereo not drawn) [IB-108] the IC50 was 10 to 30 µM.
Work on `CCCCCCNC(=O)C12NCC3CC1CN(CC(N)=O)C2C3CCc1ccccc1` (stereo not drawn) [IB-109] yielded an IC50 of 10 to 30 µM.
In the case of `CCCCCCNC(=O)C12NCC3CC1CN(CC(N)=O)C2C3Cc1cccc2ccccc12` (stereo not drawn) [IB-110], the IC50 is reported as under 5 µM.

Same assay, conditions: read-out: IC50
With `CC(C)CNC(=O)[C@]12N=C[C@@H]3C[C@H]1CN(Cc1ccccc1)[C@H]2[C@@H]3CC(C)C` (relative stereo) [IIB-4, (3S*,3aS*,6R*,7R*,7aS*)-1-benzyl-N,7-diisobutyl-1,2,3,6,7,7a-hexahydro-3aH-3,6-methanopyrrolo[3,2-b]pyridine-3a-carboxamide] the IC50 was 8.9 µM.
Compound `Cc1ccc(CNC(=O)[C@@]23C[C@@H]4CN(CC(C)C)[C@@H]([C@@H]4C=N2)[C@H]3Cc2ccccc2)cc1` (relative stereo) [IIF-16] has an IC50 of 28.7 µM.
